Columns and labels:
[1] = Maximum flux through silicone membrane from water (diffusion cell, saturated donor suspension, 32 °C)
Description: The measurement of maximum flux through silicone was performed according to a literature procedure at 32 °C, except that the silicone membrane was in contact with the receptor for only 24 h to condition them. The receptor was a 7.1 pH phosphate buffer.
After the membranes were conditioned, the receptor phases were changed and the donor suspensions (first application, 1 mL) were applied; n = 3. The donor cells were sealed by Parafilm. Samples were taken from the receptor every 2–3 h after application. Following sample collection, the receptor phases were changed to ensure sink conditions, and the donor suspensions were either changed or had more solid/oil added to the existing suspension, depending upon the visible extent of depletion. After 4–5 sampling intervals, the donor suspensions were removed with methanol and the receptors were changed. The membranes were leached with methanol in the donor phase for 48–72 h with samples taken and receptor phases changed every 12–24 h to remove any residual phenol in the membrane.
(§1) The flux values of the first and second application were determined by UV absorption.

[2] = set-up: method as in PMID 22602, PMID 16982163; details: cited from earlier work; for Exp. log JMHAQ: experimental maximum flux through human stratum corneum from water, Table 2; for Log JMHAQ: maximum flux through human stratum corneum from water, log value, Table 1
[3] = set-up: method as in PMID 22602, PMID 16982163; details: solubility in octanol, log value; cited from earlier work
[4] = set-up: method as in PMID 22602, PMID 16982163; details: octanol:water partition coefficient; cited from earlier work
[5] = set-up: method as in PMID 22602, PMID 16982163; details: solubility in water, log value; cited from earlier work
[6] = set-up: method as in PMID 18588972; details: donor suspension in propylene glycol; cited from earlier work
[7] = Flux of standard solute theophylline through silicone from propylene glycol (membrane integrity check, second application); type: in vitro ADME; details: each membrane after methanol leaching
Description: as §1

[8] = experimental maximum flux through silicone from water, Table 2
[9] = maximum flux through silicone from water, log value, 32 °C, receptor pH 7.1 phosphate buffer, n = 3, Table 1

Row | Structure (SMILES) | Exp. log JMPAQ [1, 8] [μmole cm^−2 h^−1] | Log JMPAQ [1, 9] [μmole cm^−2 h^−1] | Exp. log JMHAQ [2] [μmole cm^−2 h^−1] | Log JMHAQ [2] [μmole cm^−2 h^−1] | Log SOCT [3] [μmole cm^−3] | Log KOCT:AQ [4] | Log SAQ [5] [μmole cm^−3] | Exp. log JMPAQ ([1]; not told) [μmole cm^−2 h^−1] | Log JMPAQ ([1]; not told, pH 7.1) [μmole cm^−2 h^−1] | log JMPPG (log flux of theophylline through silicone from PG), literature value [6] [log units] | log JMPPG (log flux of theophylline through silicone from PG) [7]
1 | Cc1ccc(O)cc1 [compound 4, 4-methyl] | 1.62 | 1.62 | 0.53 | 0.53 | 4.24 | 1.95 | 2.29 |  |  |  | 
2 | Oc1ccc(Cl)cc1Cl [compound 5, 2,4-dichloro] |  |  | 0.27 | 0.27 | 4.57 | 3.08 | 1.49 | 1.16 | 1.16 |  | 
3 | Cc1cc(O)cc(C)c1Cl [compound 2, 4-chloro-3,5-dimethylphenol] | −0.027 | −0.027 | −0.95 | −0.95 | 3.67 | 3.39 | 0.28 |  |  |  | 
4 | Cn1c(=O)c2[nH]cnc2n(C)c1=O [theophylline] |  |  |  |  |  |  |  |  |  | −2.68 ± 0.12 | within the standard deviation of the literature value
5 | Cc1cccc(O)c1 [compound 7, 3-methylphenol] | 1.61 | 1.61 | 0.54 | 0.54 | 4.32 | 1.96 | 2.36 |  |  |  | 
6 | Cc1cc(O)ccc1Cl [compound 1, 4-chloro-3-methyl] |  |  | 0.29 | 0.29 | 4.65 | 3.10 | 1.55 | 1.01 | 1.01 |  | 

Source: article PMC3836618, “The Flux of Phenolic Compounds through Silicone Membranes” (Pharmaceutics, 2013)
